Experimental data: US20260226071A1, “2, 4-DIANILINOPYRIMIDINE-BASED AURORA-A KINASE SELECTIVE DEGRADATION INDUCING COMPOUNDS” (UPPTHERA, INC., priority 2023, published 2026)

What was measured:
[1] = tested on: NCI-H446 cell line; test: Cell viability assay for NCI-H446 cell line; format: cell-based; conditions: Homo sapiens, NCI-H446, 120 h; H446 cells, 5 days culture, EZ-Cytox; read-out: IC50 value (Level)
Excerpt: The NCI-H446 (hereafter H446) cell lines were provided from American Type Culture Collection (ATCC). For cell culture, RPMI medium 1640 (Gibco, Cat. No. 22400-089; Lot. No. 2522717), FBS (Gibco, Cat. No. 16000-044; Lot. No. 2716756P), Penicillin/Streptomycin (PS) (Gibco, Cat. No. 15140-122; Lot. No. 2585636), 75T cell culture flask (SPL, Cat. No. 70075), 96 well cell culture plate (SPL, Cat. No. 30096), PBS pH 7.4 (Gibco, Cat. No. 10010-023; Lot. No. 2561466), TrypLE™ Express (Gibco, Cat. No. 12605-010; Lot. No. 2492811), counting chamber (hematocytometer) (Hirschmann, Cat. No. 8100204) and 0.4% Trypan Blue solution (DYNEBIO, Cat. No. CBT3710; Lot. No. 20231017) were used. Cells were cultured in RPMI 1640 medium supplemented with 10% FBS and 1% PS and incubated at 37° C., 5% CO2 condition in CO2 incubator (ThermoScientific, Cat. No. 4111).
For experiment, the present compounds were fully dissolved in DMSO (Sigma-Aldrich Cat. No. D2438, Lot. No. RNBL7287.
In each well of 96-well cell culture plate, […] cells of H446 cell lines were seeded in 150 μl of total medium volume. After 24 hours of cell seeding, the present compounds were treated.
The present compounds were each diluted 3-folds from the highest concentration of 1000 nM to the lowest concentration of 0.15 nM. The compound was added to each well to make the total volume of […] and the cells were cultured for 5 days in CO2 incubator (Thermo Fisher Science, Cat. No. 4111).
Thereafter, 20 μl of EZ-Cytox (DOGEN, Cat. NO. EZ-3000, Lot. No. DLS2308) was added to each well and the cells were cultured for 4 hours at the same condition in CO2 incubator. After culture, the absorbance of the sample was measured by setting the wavelength of a plate reader (BMG Labtech, CLARIOstar Plus) to […]. The samples were shaked for 2 minutes in the plate reader before measurement.

[2] = target: T1, Aurora kinase A (AURKA) (Homo sapiens, UniProt O14965); test: Luciferase assay for AURKA in HeLa LgBit (AURKA-HiBit KI) cell line; format: cell-based; conditions: HeLa LgBit (AURKA-HiBit KI) cells, measured after 12 hours
T1 construct: endogenous in cells; host or cells: HeLa LgBit (AURKA-HiBit KI), CRISPR/Cas9 knock-in at the endogenous AURKA locus
T1 sequence (O14965 1-403): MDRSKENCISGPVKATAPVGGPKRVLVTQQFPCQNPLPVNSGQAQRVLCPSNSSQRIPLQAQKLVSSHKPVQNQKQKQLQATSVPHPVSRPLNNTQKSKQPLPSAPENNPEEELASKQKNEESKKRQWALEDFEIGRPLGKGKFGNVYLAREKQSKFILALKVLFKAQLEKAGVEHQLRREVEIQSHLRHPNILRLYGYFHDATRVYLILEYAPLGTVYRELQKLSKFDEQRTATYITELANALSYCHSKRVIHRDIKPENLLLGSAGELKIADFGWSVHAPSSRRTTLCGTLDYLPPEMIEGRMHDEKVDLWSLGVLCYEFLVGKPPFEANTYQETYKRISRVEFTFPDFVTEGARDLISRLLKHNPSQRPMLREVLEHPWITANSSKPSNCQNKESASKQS
Summary of the method: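 HeLa cells stably expressing LgBit, with HiBit knocked in at the C-terminus of endogenous AURKA; 3×10^4 cells seeded, 18 h, then Endurazine substrate 2 h. Compounds tested at 10 nM or 100 nM; luminescence read at 470-480 nm after 12 h as real-time read-out.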

| luminescence value (Level) ([2]; 10 nM compound) | luminescence value (Level) ([2]; 100 nM compound) | Structure (SMILES) | IC50 [1] [nM] |
| --- | --- | --- | --- |
| B (B is 0.3 to 0.5) | A (A is <0.2) | O=C1CCC(c2ccc(N3CCC(N4CCC5(CC4)CC(NC(=O)c4ccc(Nc6ncc(F)c(Nc7ccc(C(=O)Nc8ccccc8Cl)cc7)n6)cc4)C5)CC3)c(F)c2)C(=O)N1 (stereo not drawn) [Compound 21, N-(2-chlorophenyl)-4-((2-((4-((7-(1-(4-(2,6-dioxopiperidin-3-yl)-2-fluorophenyl)piperidin-4-yl)-7-azaspiro[3.5]nonan-2-yl)carbamoyl)phenyl)amino)-5-fluoropyrimidin-4-yl)amino)benzamide] | < 50 |
| A (A is <0.3) | A (A is <0.2) | O=C1CCC(c2ccc(N3CCC(N4CCC5(CC4)CC(NC(=O)Cc4ccc(Nc6ncc(F)c(Nc7ccc(C(=O)Nc8ccccc8Cl)cc7)n6)cc4)C5)CC3)c(F)c2)C(=O)N1 (stereo not drawn) [Compound 22, N-(2-chlorophenyl)-4-((2-((4-(2-((7-(1-(4-(2,6-dioxopiperidin-3-yl)-2-fluorophenyl)piperidin-4-yl)-7-azaspiro[3.5]nonan-2-yl)amino)-2-oxoethyl)phenyl)amino)-5-fluoropyrimidin-4-yl)amino)benzamide] | 100 to 150 |
| B (B is 0.3 to 0.5) | A (A is <0.2) | O=C1CCC(c2ccc(N3CCC(CN4CCC5(CC4)CC(NC(=O)c4ccc(Nc6ncc(F)c(Nc7ccc(C(=O)Nc8ccccc8Cl)cc7)n6)cc4)C5)CC3)c(F)c2)C(=O)N1 (stereo not drawn) [Compound 23, N-(2-chlorophenyl)-4-((2-((4-((7-((1-(4-(2,6-dioxopiperidin-3-yl)-2-fluorophenyl)piperidin-4-yl)methyl)-7-azaspiro[3.5]nonan-2-yl)carbamoyl)phenyl)amino)-5-fluoropyrimidin-4-yl)amino)benzamide] | < 50 |
| B (B is 0.3 to 0.5) | A (A is <0.2) | O=C1CCC(Nc2ccc(N3CCC(CN4CCN(C(=O)Cc5ccc(Nc6ncc(F)c(Nc7ccc(C(=O)Nc8ccccc8Cl)cc7)n6)cc5)CC4)CC3)cc2)C(=O)N1 (stereo not drawn) [Compound 24, N-(2-chlorophenyl)-4-((2-((4-(2-(4-((1-(4-((2,6-dioxopiperidin-3-yl)amino)phenyl)piperidin-4-yl)methyl)piperazin-1-yl)-2-oxoethyl)phenyl)amino)-5-fluoropyrimidin-4-yl)amino)benzamide] | < 50 |
| B (B is 0.3 to 0.5) | B (B is 0.2 to 0.4) | O=C1CCC(Nc2ccc(N3CCN(C[C@H]4CC[C@H](NC(=O)c5ccc(Nc6ncc(F)c(Nc7ccc(C(=O)Nc8ccccc8Cl)cc7)n6)cc5)CC4)CC3)cc2)C(=O)N1 (stereo partly drawn) [Compound 26, N-(2-chlorophenyl)-4-((2-((4-(((1r,4r)-4-((4-(4-((2,6-dioxopiperidin-3-yl)amino)phenyl)piperazin-1-yl)methyl)cyclohexyl)carbamoyl)phenyl)amino)-5-fluoropyrimidin-4-yl)amino)benzamide] | < 50 |
| B (B is 0.3 to 0.5) | A (A is <0.2) | O=C1CCC(Nc2ccc(N3CCN(CC4CC45CCN(C(=O)c4ccc(Nc6ncc(F)c(Nc7ccc(C(=O)Nc8ccccc8Cl)cc7)n6)cc4)CC5)CC3)cc2)C(=O)N1 (stereo not drawn) [Compound 30, N-(2-chlorophenyl)-4-((2-((4-(1-((4-(4-((2,6-dioxopiperidin-3-yl)amino)phenyl)piperazin-1-yl)methyl)-6-azaspiro[2.5]octane-6-carbonyl)phenyl)amino)-5-fluoropyrimidin-4-yl)amino)benzamide] | < 50 |
| B (B is 0.3 to 0.5) | A (A is <0.2) | O=C1CCC(Nc2ccc(N3CCC(CN4CCC5(CC4)CCN(C(=O)c4ccc(Nc6ncc(F)c(Nc7ccc(C(=O)Nc8ccccc8Cl)cc7)n6)cc4)C5)CC3)cc2)C(=O)N1 (stereo not drawn) [Compound 33, N-(2-chlorophenyl)-4-[[2-[4-[8-[[1-[4-[(2,6-dioxo-3-piperidyl)amino]phenyl]-4-piperidyl]methyl]-2,8-diazaspiro[4.5]decane-2-carbonyl]anilino]-5-fluoro-pyrimidin-4-yl]amino]benzamide] | 100 to 150 |
| B (B is 0.3 to 0.5) | B (B is 0.2 to 0.4) | O=C1CCC(Nc2ccc(N3CC(CN4CC5CN(C(=O)c6ccc(Nc7ncc(F)c(Nc8ccc(C(=O)Nc9ccccc9Cl)cc8)n7)cc6)CC5C4)C3)cc2)C(=O)N1 (stereo not drawn) [Compound 35, N-(2-chlorophenyl)-4-((2-((4-(5-((1-(4-((2,6-dioxopiperidin-3-yl)amino)phenyl)azetidin-3-yl)methyl)octahydropyrrolo[3,4-c]pyrrole-2-carbonyl)phenyl)amino)-5-fluoropyrimidin-4-yl)amino)benzamide] | 150 to 200 |
| B (B is 0.3 to 0.5) | A (A is <0.2) | O=C1CCC(Nc2ccc(N3CC(N4CCc5cc(NC(=O)c6ccc(Nc7ncc(F)c(Nc8ccc(C(=O)Nc9ccccc9Cl)cc8)n7)cc6)ccc5C4)C3)cc2)C(=O)N1 (stereo not drawn) [Compound 36, N-(2-chlorophenyl)-4-((2-((4-((2-(1-(4-((2,6-dioxopiperidin-3-yl)amino)phenyl)azetidin-3-yl)-1,2,3,4-tetrahydroisoquinolin-6-yl)carbamoyl)phenyl)amino)-5-fluoropyrimidin-4-yl)amino)benzamide] | 100 to 150 |
| B (B is 0.3 to 0.5) | B (B is 0.2 to 0.4) | CN(CC1CCN(c2ccc(NC3CCC(=O)NC3=O)cc2)CC1)C[C@H]1CC[C@H](NC(=O)c2ccc(Nc3ncc(F)c(Nc4ccc(C(=O)Nc5ccccc5Cl)cc4)n3)cc2)CC1 (stereo partly drawn) [Compound 38, N-(2-chlorophenyl)-4-[[2-[4-[[4-[[[1-[4-[(2,6-dioxo-3-piperidyl)amino]phenyl]-4-piperidyl]methyl-methyl-amino]methyl]cyclohexyl]carbamoyl]anilino]-5-fluoro-pyrimidin-4-yl]amino]benzamide] | > 200 |
| A (A is <0.3) | A (A is <0.2) | O=C1CCC(Nc2ccc(N3CCN(CCC4CCN(NC(=O)c5ccc(Nc6ncc(F)c(Nc7ccc(C(=O)Nc8ccccc8Cl)cc7)n6)cc5)CC4)CC3)cc2)C(=O)N1 (stereo not drawn) [Compound 43, N-(2-chlorophenyl)-4-((2-((4-((4-(2-(4-(4-((2,6-dioxopiperidin-3-yl)amino)phenyl)piperazin-1-yl)ethyl)piperidin-1-yl)carbamoyl)phenyl)amino)-5-fluoropyrimidin-4-yl)amino)benzamide] | < 50 |
| B (B is 0.3 to 0.5) | A (A is <0.2) | CN(c1ccc(N2CCC(CN3CCN(C(=O)Cc4ccc(Nc5ncc(F)c(Nc6ccc(C(=O)Nc7ccccc7Cl)cc6)n5)cc4)CC3)CC2)cc1)C1CCC(=O)NC1=O (stereo not drawn) [Compound 44, N-(2-chlorophenyl)-4-((2-((4-(2-(4-((1-(4-((2,6-dioxopiperidin-3-yl)(methyl)amino)phenyl)piperidin-4-yl)methyl)piperazin-1-yl)-2-oxoethyl)phenyl)amino)-5-fluoropyrimidin-4-yl)amino)benzamide] | 100 to 150 |
